Assay results as given in the supplement of paper PMC10290057.
Structures can show the parent of a compound that is named as a salt.

How the values were obtained:
[1] = tested on: HCT116; test: AC50 cell viability (CellTiter-Glo); higher = less potent; conditions: 48 h
[2] = tested on: HCT116; test: efficacy (fitted maximal change in viability relative to DMSO control); higher = less cytotoxic (negative = loss of viability); conditions: 48 h
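Throughout, for AC50 cell viability (CellTiter-Glo): HCT116 colorectal carcinoma cells screened at five concentrations per compound, luminescent viability scaled between DMSO wells and empty wells on each plate, curves fitted per compound.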
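Throughout, for efficacy (fitted maximal change in viability relative to DMSO control): Luminescence-based viability readout, five doses per compound, normalized against on-plate DMSO and empty-well controls, followed by dose-response curve fitting for every drug.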

SMILES | AC50 cell viability [1] [µM] | efficacy [2] [%]
CC(C)(O)CNc1ncc(-c2ccnc(Nc3ccncc3)n2)c(CC2CC2)n1 [VPS34 Inhibitor 1 (Compound 19, PIK-III analogue)] | 13.2 | -109
Cc1cn(CCN2CCN(c3ccccc3-c3cc(C#N)cc(C(=O)NCCCN4CCCC4)c3)CC2)c2ccccc12 [LLY-507] | 26.3 | -130
CCCCc1oc2ccccc2c1C(=O)c1cc(I)c(OCCN(CC)CC)c(I)c1 [Amiodarone hydrochloride] | 23.5 | -71.8
CC1=C(OC2=CC3=NC=N[N]3C=C2)C=CC(=C1)NC4=NC=NC5=C4C=C(N\C6=N\C(C)(C)CO6)C=C5 [Tucatinib] | 20.9 | -71.1
COC1=CC(=C2C(=O)N\C(=N/C2=C1)C3=CC(=C(OCCO)C(=C3)C)C)OC [RVX-208] | 18.6 | -41.5
Cc1cc2c(F)c(Oc3ncnn4cc(OC[C@@H](C)O)c(C)c34)ccc2[nH]1 [Brivanib] | 9.34 | -80.3
CCN1/C(=C/C(C)=O)Sc2ccc(OC)cc21 [TG-003] | 14.8 | -41.4
C[S+](=O)([O-])N1CCN(Cc2cc3nc(-c4cccc5[nH]ncc45)nc(N4CCOCC4)c3s2)CC1 [Pictilisib] | 3.32 | -78.3
CC/1=C/C[C@]23O[C@@]2(C)CC[C@@H]4[C@H](OC(=O)C4=C)[C@@H]13 [Arglabin] | 14.8 | -79
Clc1ccc(Cn2c(CN3CCCC3)nc3ccccc32)cc1 [Clemizole hydrochloride] | 23.5 | -93.1
O=C(NOCC1CC1)c1ccc(F)c(F)c1Nc1ccc(I)cc1Cl | 4.68 | -126
COc1cccc([C@@H](C)NCCCc2ccccc2Cl)c1 [NPS-R568] | 23.5 | -99.8
Cc1cc(-c2cnn3c(NC[C@H]4C[C@@](C)(O)C4)cc(Oc4cccnc4)nc23)ccc1C(=O)NC1CC1 | 0.934 | -56.6
COC(=O)Nc1nc2cc(Sc3ccccc3)ccc2[nH]1 [Fenbendazole] | 1.05 | -79.7
Cn1c(Nc2ccc(C(F)(F)F)cc2)nc2cc(Oc3ccnc(-c4nc(C(F)(F)F)c[nH]4)c3)ccc21 [CHIR-265] | 5.25 | -108
CC(=O)Nc1cc(Oc2ccc3c(nc(Nc4ccc(F)cc4F)n3C)c2C)ccn1 [CHZ868] | 0.833 | -67.4
Oc1cccc(-c2nc(N3CCOCC3)c3oc4ncccc4c3n2)c1 [PI-103] | 1.32 | -57.3
COc1ccc([S+](=O)([O-])N2CCc3cccc(-c4ccncc4)c32)cc1 [MPT-0B098] | 0.417 | -61.1
CC(C)n1cnc2c(NCCc3ccc(O)cc3)nc(-c3csc4ccccc34)nc21 [StemRegenin 1] | 18.6 | -91.3
O=C1Nc2nc(-c3c(O)cccc3OCC3CC3)cc([C@@H]3CCCNC3)c2CO1 [Bay-65-1942 hydrochloride] | 9.34 | -90.5
O=[S+]([O-])(c1cccc2cnccc12)N1CCCNCC1 [Fasudil hydrochloride] | 18.6 | -49.1
CN(C)c1ccccc1CN1CCCN(Cc2ccccc2N(C)C)C1c1ccncc1 [GANT-61] | 18.6 | -88.6
C[C@@H]1CC(=O)Nc2cccc(-c3cnn(C(C)(C)C)c3)c2N1 [CPI-703] | 16.6 | -37.4
OC1=CC2=C(C(=C1)O)C(=O)\C=C(/O2)C3=CC=CC=C3 [Chrysine] | 20.9 | -49.1
